Test results as given in patent US20160038474A1, “COMPOSITIONS AND METHODS FOR THE MODULATION OF HEMOGLOBIN (S)” (GLOBAL BLOOD THERAPEUTICS, INC., priority 2013, published 2016).
Read-outs that look alike come from different tables or passages of the source.

What was measured:
[1] = Rat pharmacokinetics and blood/plasma partitioning (Example 1); format: in vivo, Rats (Sprague-Dawley); settings: for blood plasma ratio: whole blood and plasma, oral, 10 mg/kg
Method: This experiment was established and used in order to assess the pharmacokinetic (PK) properties of the compounds.
Sample collection and data analysis: Rats (Sprague-Dawley, male, 8-12[…] weeks old) were dosed with one of three compounds corresponding to compound 12, compound 22 or compound 23. The rats received oral (10 mg/kg) or intravenous (1 mg/kg) doses of the compound. Rats were fasted overnight before the experiments and provided with food after the 2 hour sampling time point.
Blood samples were collected at different time points. Blood was anti-coagulated by 3.2% TSC (trisodium citrate) and a portion was separated into plasma fraction by centrifugation and removal of blood cells. Plasma and lysed blood samples were anal) zed for drug concentration using LC-MS/MS. PK parameters were calculated by non compartmental analysis of the concentration-time profiles using WinNonLin software (Pharsight, Mountain View, Calif.). Apparent elimination half-life (t1/2) values were calculated as ln(2)/k. Area under the concentration-time curve (AUC) values were estimated using the linear trapezoidal method. AUClast values were calculated from the dosing time to the last measurable concentration. AUCinf values were calculated as the sum of the corresponding AUClast and the ratio of the last detectable concentration divided by k. Plasma clearance (Cl) is calculated from Dose/AUCinf. Volume of distribution at steady state (Vss) is calculated from Mean Residence Timeinf×Clss. Maximum concentration (Cmax) and time to Cmax (Tmax) was recorded as observed. The blood/plasma partitioning ratio was calculated at each experimental time point.

purified HbS = target: T1, purified HbS (Homo sapiens, UniProt P68871+P69905, E7V); assay: HbS polymerization assay; format: biochemical; settings: for Polymerization DTcmpd-DTHbS: [HbS] 50 μM
T1 construct: HbS is purified by the CRO VIRUSYS, from blood obtained from homozygous sickle cell patients; tissue VIRUSYS (CRO that did the purification); host or cells: blood of homozygous sickle cell patients
Method: Polymerization assays are carried out in vitro using purified HbS exchanged into 1.8 M potassium phosphate buffer at pH 7.4. Using a slightly modified protocol (Antonini and Brunori, 1971). HbS is purified by the CRO VIRUSYS, from blood obtained from homozygous sickle cell patients through the Hemoglobinopathy Center at Children's Hospital Oakland Research Institute (CHORI) with Institutional Review Board approval. Compounds are prepared in 100% DMSO and a desired amount is added to 50 μM of purified HbS at a final DMSO concentration of 0.3%. Final potassium phosphate concentration is adjusted to 1.8 M using a combination of 2.5 M potassium phosphate stock solution and water at pH 7.4. The reaction mixture is incubated for an hour at 37° C. and then transferred into a 24-well plate for deoxygenation in a glove box containing 99.5% nitrogen and 0.5% oxygen. The 24-well plate is not covered and incubated at 4° C. on a plate cooler inside the glove box for one and a half hours. Fifty μl of the reaction mixture is transferred into a 96-well plate and the absorbance at 700 nm is measured every minute for one hour at 37° C. in a plate reader located inside the glove box. A plot of the absorbance against time is fitted using a Boltzman sigmoidal fit and the delay time (from zero to time at half Vmax) is measured. To compare and rank compounds, delay times are expressed as percent delay (% DT), which is defined as the difference in delay times for HbS/compound and HbS alone multiplied by 100 and divided by the delay time for HbS alone.
The ability of 5-HMF and compound 12 to delay HbS polymerization was evaluated as described in Example 2, above. Purified HbS (50 μM) was pre-incubated with 25 μM, 50 μM, or 100 μM of 5-HMF or compound 12, then passively de-oxygenated at 4° C. in 1.8 M potassium phosphate. Polymerization was induced via temperature jump from 4° C. to 37° C. Polymerization was quantified based on turbidity of the HbS solution under continued hypoxia.

washed red blood cells = assay: Reverse Hemox assay (OEC), washed red blood cells; format: cell-based, human
Method: Oxygen Equilibrium Curves (OEC) of whole blood before and after treatment with different concentrations of compounds 12, 22 and 23 were performed as follows using a HEMOX analyzer (TCS Scientific, New Hope, Pa.). Blood samples from homozygous sickle cell patients were obtained though the Hemoglobinopathy Center at Children's Hospital Oakland Research Institute (CHORI) with Institutional Review Board approval. The hematocrit was adjusted to 20% using autologous plasma and the blood samples were incubated for 1 hour at 37° C. in absence or presence of compounds. 100 μl of these samples were added to 5 mL of Hemox butter (30 mM TES, 130 mM NaCl, 5 mM KCl, pH=7.4) at 37° C. and then transferred to the Hemox sample chamber. The samples were saturated with oxygen by flushing with compressed air for 10 minutes. The samples were then flushed with pure nitrogen and the respective absorbances of oxy- and deoxy-Hb are recorded as a function of the solution pO2. The oxygen equilibrium data were then fitted to the Hill Model to obtain values for p50. The deoxygenation curves for both whole blood alone (control) and whole blood in the presence of the compound were collected with the TCS software.
Reverse hemox assay was performed essentially as described in Example 2, above, using either washed red blood cells or whole blood.
Results: Table 4, below, indicates the percent change in p50 (delta p50%) for each compound tested. In the washed red blood cells (RBCs), 5-HMF, compound 5, and compound 12 (1 mM compound) gave p50 of 20, 9 and 7 mm Hg, respectively, compared to the control red blood cells (delta p50=30 mm Hg). To determine the effects of plasma proteins on compound activity. OECs were measured in whole blood from sickle cell disease patients. 5-HMF, compound 5, compound 9, and compound 12 gave p50 of 27, 18, 11 and 6 mm Hg, respectively, compared to the control blood p50 of 30 mm Hg.

[2] = tested on: sickle cell disease patient whole blood (ssRBCs); assay: Viscosity assay, hypoxic sickle cell blood; format: cell-based, human; settings: for Viscosity (ΔcP): [Hb] 1.5 mM, two hours of hypoxia
Method: Sickle cell disease patients develop anemia as a means for the circulatory system to compensate for increase in blood viscosity caused by the non-deformable sickle cell red blood cells (ssRBCs). The effects of 5-HMF, compound 5, compound 9, or compound 12 were tested on sickle cell disease patient blood rheology to determine if these compounds decrease the viscosity of ssRBCs that have undergone hypoxia. Using blood from patients with sickle cell disease, whole blood (30% hematocrit, ˜1.5 mM Hb) was incubated with 5-HMF, compound 5, compound 9, or compound 12 during exposure to two hours of hypoxia (2.4% 02). A cone-plate viscometer was used to measure the viscosity at shear rates ranging from 60 s^−1 to 415 s^−1.

CC(C)n1nccc1-c1ncccc1COc1cccc(O)c1C=O [Compound 12, 2-hydroxy-6-[[2-(2-propan-2-ylpyrazol-3-yl)pyridin-3-yl]methoxy] benzaldehyde]
level of compound in blood versus plasma, overall exposure ([1]; dosed orally): 55 fold
relative proportion in blood (as compared to plasma) at peak concentration (Cmax) ([1]; dosed orally): 21 fold
Vd ([1]; male, Sprague-Dawley, in vivo, oral 10 mg/kg or intravenous 1 mg/kg, read-out: Vss): 0.14 L/kg
bioavailability ([1]; male, Sprague-Dawley, in vivo, oral 10 mg/kg, intravenous 1 mg/kg): 68.8%
clearance ([1]; male, Sprague-Dawley, plasma, oral 10 mg/kg or intravenous 1 mg/kg): 0.11 mL/min/kg
blood plasma ratio ([1]; male, Sprague-Dawley, read-out: Blood/plasma (Ratio of exposure AUCINF)): 55
blood plasma ratio ([1]; male, Sprague-Dawley, read-out: Blood/plasma (Ratio of peak concentration)): 21
red blood cell/plasma ratio at the peak concentration ([1]; ratio to 1 into the erythrocytes): 70
Polymerization % DT (class) (purified HbS; 75 μM compound, 50 μM HbS): †† (activity >80% but ≦120%)
Polymerization % DT (percent delay) (purified HbS; 75 μM compound, 50 μM HbS): 108.56%
HbS polymerization delay (in words) (purified HbS; HbS 50 μM, 25, 50 or 100 μM compound): delayed HbS polymerization in a dose-dependent manner
Polymerization DTcmpd-DTHbS (purified HbS; [Cmpd] 25 μM): 3.9 min
Polymerization DTcmpd-DTHbS (purified HbS; [Cmpd] 50 μM): 12.8 min
Polymerization DTcmpd-DTHbS (purified HbS; [Cmpd] 100 μM): 22.9 min
Washed RBC OEC (delta p50%) (washed red blood cells; [Hb] 1 mM, [cmp] 1 mM): 76%
p50 (washed red blood cells; washed RBCs, 1 mM compound, control 30 mm Hg): 7 mm Hg
Viscosity (ΔcP) ([2]; [cmp] 1.6 mM): 2.0 cP
Viscosity (ΔcP) ([2]; [cmp] 8 mM): >2.4 cP
blood viscosity ([2]; equimolar compound, hypoxia, 6.33 cP without compound): 4.32 cP
